According to publication PMC3214022, “Plasmodium falciparum Parasites Are Killed by a Transition State Analogue of Purine Nucleoside Phosphorylase in a Primate Animal Model” (PLoS ONE, 2011):
Where “and” joins values, the source holds several entries; their conditions need not be identical. Equal values may be shown once.

Columns and labels:
in vivo = experiment: in vivo; parameters: species or system Aotus lemurinus lemurinus
Description: (§1) Samples from blood cells, plasma and media were extracted and analyzed in duplicate. […] Samples were incubated for 20 min at 4 °C and neutralized with 5 M KOH at 10∶1 (v/v, HClO4/KOH) for 20 min at 4 °C. Plates were centrifuged (10 min at 4,000 rpm, 4°C) and supernatants were filtered through a MultiScreen® Filter Plate with Ultracel®-10 Membrane (Millipore). Metabolite and inhibitor levels were quantified by UPLC/MS/MS using a Xevo TQ mass spectrometer (Waters). […] Quantitative determination was performed in ESI positive-ion mode using multiple-reaction monitoring (MRM) mode. The ESI capillary voltage was 0.3 kV, source temperature was set at 150 °C and desolvation temperature at 450 °C. Data acquisition and analysis were carried out by MassLynx V4.1 and QuanLynx software (Waters). The concentration of the metabolites was calculated by interpolation of the observed analyte/internal standard peak-area ratio with the corresponding calibration curve.
(§2) Laboratory bred Aotus lemurinus lemurinus monkeys (0.75–0.89 kg) were maintained as described. […] Blood samples were collected before the treatment started (t = 0), 0.05 h, 0.5 h, 1 h, 2 h, 6 h, 24 h, 48 h, and 6, 12 and 18 days after the first dose from each monkey and processed as described below. Pharmacokinetic parameters were calculated using PKSolver. For efficacy studies, Aotus monkeys were inoculated intravenously with 5×10^6 parasites of the FVO strain of P. falciparum in an approved treatment protocol. […] Parasitaemia was determined by Giemsa-stained thick blood smears prepared daily from the marginal ear vein [41]. Blood samples were collected from each monkey and transferred to tubes containing lithium heparin, centrifuged and both plasma and blood cells were frozen at −80 °C until analysis. Animals received a physical examination and blood chemistry profiles were monitored after treatment as described previously. Any monkey not responding appropriately to treatment was cured of its infection with mefloquine (40 mg kg^−1). […] The day of clearance is defined as the first of three consecutive days in which the thick blood films are parasite negative. The day of recrudescence is the first of three consecutive days of positive thick blood films after a period of clearance. Suppression is defined as a transient decrease in the parasite count post-treatment without clearance.

P. falciparum strain Dd2 = experiment: 72 h in vitro growth inhibition test, PicoGreen DNA quantitation; type: cell-based; conditions: Plasmodium falciparum, DD2, 72 h
Description: (§3) Briefly, synchronous culture in the schizont stage was cultured for 24 h in media containing 10 µM of hypoxanthine. Ring stage parasite cultures (200 µl per well, with 1% hematocrit and 1% parasitaemia) were then grown for 72 h in the presence of increasing concentrations of the drug. After 72 h in culture, parasite viability was determined by DNA quantitation using PicoGreen (Invitrogen) as described by Quashie and colleagues. The half-maximum inhibitory concentration (IC50) calculation was performed with Origin software (OriginLab) using a nonlinear regression curve fitting. Half-maximum inhibitory concentration (IC50) is the concentration of inhibitor needed to kill 50% of parasites.

P. falciparum strain FVO = experiment: as above; type: cell-based; conditions: Plasmodium falciparum, chloroquine/quinine resistant strain FVO, 1% hematocrit, 10 µM hypoxanthine
Description: as §3

P. falciparum strain 3D7 = experiment: as above; type: cell-based; conditions: Plasmodium falciparum, 3D7, 72 h
Description: as §3

[1] = tested on: purine salvage (hypoxanthine, inosine, adenosine, 2′-deoxyguanosine); experiment: Purine metabolites in plasma and blood cells of treated Aotus monkeys (UPLC-MS/MS); type: in vivo, Aotus lemurinus lemurinus
Description: as §1, §2

[2] = Weights, CBC and blood chemistry, Table S1 sheet PK (pharmacokinetic study); type: in vivo, Aotus lemurinus lemurinus
Description: as §2

[3] = tested on: P. falciparum-infected erythrocytes; experiment: Metabolic labeling with [3H]inosine or [3H]hypoxanthine and HPLC analysis; type: cell-based, Plasmodium falciparum; conditions: 10 µM BCX4945, 1 h labeling
Excerpt: Samples were extracted with perchloric acid (PCA), neutralized and analyzed by HPLC as described.

[4] = tested on: P. falciparum infected-erythrocytes; experiment: Polyamine and purine levels in cultured cells after BCX4945 treatment (HPLC, UPLC/MS/MS); type: cell-based, Plasmodium falciparum; conditions: 5 µM BCX4945, 24 h
Description: Polyamines from 0.5 M PCA extracts were analyzed as the dansyl-derivatives by HPLC/fluorescence on a Waters Millennium system. Protein concentration was determined with a bicinchoninic acid (BCA) protein assay kit according to the manufacturer's instructions (Pierce) using BSA as a standard. Data from biological samples were normalized to the protein content.
as §1

[5] = infected Aotus under BCX4945 treatment

Nc1nc2c(CN3CC(O)C(CO)C3)c[nH]c2c(=O)[nH]1 (stereo not drawn) [BCX4945, 4′-deaza-1′-aza-2′-deoxy-1′-(9-methylene)-Immucillin-G]
bioavailability (in vivo; Aotus lemurinus lemurinus): 28% | concentration at 24 h (in vivo; Aotus lemurinus lemurinus, po): ~1200 nM | plasma concentration within 1 h of the first dose (in vivo; Aotus lemurinus lemurinus, po): approximately 6 µM | half-life (in vivo; monkey): 1.2 to 1.3 h | half-life (in vivo; monkey, iv, 10 mg/kg): 1.3 h | Cmax (in vivo; monkey, po, 50 mg/kg): ≤ 15000 nM | half-life (in vivo; monkey, po, 50 mg/kg): 1.2 h | IC50 (P. falciparum strain Dd2): 130 ± 22 nM | IC50 (P. falciparum strain FVO): 202 ± 27 nM | IC50 (P. falciparum strain 3D7): 164 ± 20 nM | hypoxanthine in plasma throughout the treatment period ([1]; 50 mg kg^−1 per dose twice a day): 0.3 ± 0.2 µM | 2′-deoxyguanosine levels in plasma and blood cells ([1]; BCX4945 treatment): increased | hypoxanthine concentration in plasma and blood cells [1, 5]: below 0.3 µM | inosine concentration in plasma and blood cells [1, 5]: above 50 µM | hypoxanthine reappearing in the blood ([1]; infected animals, three days after the end of three-day oral treatment): ~30 µM | Creatine ([2]; IV 10 mg/kg once a day/3 days, monkeys 21014 (c1-5), 21007 (c6-10), 22014 (c11-15), 22004 (c16-20), days -2, 6, 12, 18 (22004: 19), 79, 10 mg/kg, day 12): 0.55 mg/dL and 0.532 mg/dL | Creatine ([2]; IV 10 mg/kg once a day/3 days, monkeys 21014 (c1-5), 21007 (c6-10), 22014 (c11-15), 22004 (c16-20), days -2, 6, 12, 18 (22004: 19), 79, 10 mg/kg, day -2): <0.5 mg/dL and 0.5 mg/dL | Blood Urea Nitrogen ([2]; oral, one dose 50 mg/kg, monkey 23015, days -2, 6, 12, 19, 79 = c1-c5, 50 mg/kg): <10.0 mg/dL | Creatine ([2]; oral, three doses 50 mg/kg once a day/3 days, monkey 23029, days -2, 6, 12, 19, 79 = c11-c15): <0.5 mg/dL | [3H]hypoxanthine incorporation into purine derivatives [3]: continues at reduced levels | [3H]inosine incorporation into the purine pool ([3]; schizont and trophozoite stages): complete inhibition | Adenosine, cell pellet [4]: 10±4 nmoles/mg protein | Adenosine, supernatant [4]: 0.4±0.2 (0.08) µM | BCX4945 level, cell pellet [4]: 20±6 (0.004) nmoles/mg protein | BCX4945 level, supernatant [4]: 5±0.6 (0.0002) µM | Hypoxanthine, cell pellet [4]: 0 (0.007) nmoles/mg protein | Hypoxanthine, supernatant [4]: 0 (0.004) µM | Inosine, cell pellet [4]: 19±5 nmoles/mg protein | Inosine, supernatant [4]: 60 µM and 61±5 (0.0001) µM | MTA, cell pellet [4]: 0.6±0.1 nmoles/mg protein | MTA, supernatant [4]: 0 µM | MTI, cell pellet [4]: 0.6±0.1 nmoles/mg protein | MTI, supernatant [4]: 0.3±0.1 (0.03) µM | Putrescine, cell pellet [4]: 0.2±0.1 (0.01) nmoles/mg protein | Spermidine, cell pellet [4]: 1.1±0.3 (0.02) nmoles/mg protein | Spermine, cell pellet [4]: 0.07±0.03 (0.01) nmoles/mg protein
